Test results taken from US8802597B2, “Herbicidal pyrimidines” (E I du Pont de Nemours and Company, priority 2003, dated 2014).

Legend:
Assay in all cases: Test D pre/postemergence
Format in all cases: in vivo
Conditions in all cases: scale 0 to 100 (100 = complete control)
[1] = system: wild mustard (Sinapis arvensis)
Procedure, shortened: (§1)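 Responses are visual ratings on a 0 to 100 scale, with 100 meaning complete control, taken 15 to 25 days after treatment in a controlled growth environment. Applications were pre- and postemergence (1- to 4-leaf plants) using a non-phytotoxic solvent formulation with surfactant.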

[2] = system: Russian thistle (Salsola kali)
Procedure, shortened: as §1

[3] = system: wheat (Triticum aestivum)
Procedure, shortened: as §1

[4] = system: wild buckwheat (Polygonum convolvulus)
Procedure, shortened: as §1

[5] = system: lambsquarters (Chenopodium album)
Procedure, shortened: as §1

[6] = system: kochia (Kochia scoparia)
Procedure, shortened: as §1

[7] = system: common chickweed (Stellaria media)
Procedure, shortened: as §1

## COC(=O)c1nc(C2CC2)nc(N)c1Br [Compound 2, methyl 6-amino-5-bromo-2-cyclopropyl-4-pyrimidinecarboxylate]
[1]; Postemergence, 16 g ai/ha
  Plant response rating, Mustard, Wild: 65
[1]; Postemergence, 31 g ai/ha
  Plant response rating, Mustard, Wild: 65
[1]; Postemergence, 62 g ai/ha
  Plant response rating, Mustard, Wild: 70
[1]; Postemergence, 125 g ai/ha
  Plant response rating, Mustard, Wild: 80
[1]; Preemergence, 16 g ai/ha
  Plant response rating, Mustard, Wild: 50
[1]; Preemergence, 31 g ai/ha
  Plant response rating, Mustard, Wild: 70
[1]; Preemergence, 62 g ai/ha
  Plant response rating, Mustard, Wild: 70
[1]; Preemergence, 125 g ai/ha
  Plant response rating, Mustard, Wild: 85
[2]; Postemergence, 16 g ai/ha
  Plant response rating, Russian Thistle: 65
[2]; Postemergence, 31 g ai/ha
  Plant response rating, Russian Thistle: 85
[2]; Postemergence, 62 g ai/ha
  Plant response rating, Russian Thistle: 95
[2]; Postemergence, 125 g ai/ha
  Plant response rating, Russian Thistle: 100
[2]; Preemergence, 16 g ai/ha
  Plant response rating, Russian Thistle: 85
[2]; Preemergence, 31 g ai/ha
  Plant response rating, Russian Thistle: 100
[2]; Preemergence, 62 g ai/ha
  Plant response rating, Russian Thistle: 100
[2]; Preemergence, 125 g ai/ha
  Plant response rating, Russian Thistle: 100
[3]; Postemergence, 16 g ai/ha
  Plant response rating, Wheat: 70
[3]; Postemergence, 31 g ai/ha
  Plant response rating, Wheat: 70
[3]; Postemergence, 62 g ai/ha
  Plant response rating, Wheat: 100
[3]; Postemergence, 125 g ai/ha
  Plant response rating, Wheat: 100
[3]; Preemergence, 16 g ai/ha
  Plant response rating, Wheat: 45
[3]; Preemergence, 31 g ai/ha
  Plant response rating, Wheat: 60
[3]; Preemergence, 62 g ai/ha
  Plant response rating, Wheat: 70
[3]; Preemergence, 125 g ai/ha
  Plant response rating, Wheat: 70
[4]; Postemergence, 16 g ai/ha
  Plant response rating, Buckwheat, Wild: 45
[4]; Postemergence, 31 g ai/ha
  Plant response rating, Buckwheat, Wild: 65
[4]; Postemergence, 62 g ai/ha
  Plant response rating, Buckwheat, Wild: 90
[4]; Postemergence, 125 g ai/ha
  Plant response rating, Buckwheat, Wild: 95
[4]; Preemergence, 16 g ai/ha
  Plant response rating, Buckwheat, Wild: 45
[4]; Preemergence, 31 g ai/ha
  Plant response rating, Buckwheat, Wild: 65
[4]; Preemergence, 62 g ai/ha
  Plant response rating, Buckwheat, Wild: 80
[4]; Preemergence, 125 g ai/ha
  Plant response rating, Buckwheat, Wild: 85
[5]; Postemergence, 16 g ai/ha
  Plant response rating, Lambsquarters: 60
[5]; Postemergence, 31 g ai/ha
  Plant response rating, Lambsquarters: 100
[5]; Postemergence, 62 g ai/ha
  Plant response rating, Lambsquarters: 100
[5]; Postemergence, 125 g ai/ha
  Plant response rating, Lambsquarters: 100
[5]; Preemergence, 31 g ai/ha
  Plant response rating, Lambsquarters: 85
[5]; Preemergence, 62 g ai/ha
  Plant response rating, Lambsquarters: 95
[5]; Preemergence, 125 g ai/ha
  Plant response rating, Lambsquarters: 100
[6]; Postemergence, 16 g ai/ha
  Plant response rating, Kochia: 75
[6]; Postemergence, 31 g ai/ha
  Plant response rating, Kochia: 100
[6]; Postemergence, 62 g ai/ha
  Plant response rating, Kochia: 100
[6]; Postemergence, 125 g ai/ha
  Plant response rating, Kochia: 100
[6]; Preemergence, 16 g ai/ha
  Plant response rating, Kochia: 55
[6]; Preemergence, 31 g ai/ha
  Plant response rating, Kochia: 70
[6]; Preemergence, 62 g ai/ha
  Plant response rating, Kochia: 100
[6]; Preemergence, 125 g ai/ha
  Plant response rating, Kochia: 100
[7]; Postemergence, 16 g ai/ha
  Plant response rating, Chickweed: 60
[7]; Postemergence, 31 g ai/ha
  Plant response rating, Chickweed: 60
[7]; Postemergence, 62 g ai/ha
  Plant response rating, Chickweed: 85
[7]; Postemergence, 125 g ai/ha
  Plant response rating, Chickweed: 85
[7]; Preemergence, 16 g ai/ha
  Plant response rating, Chickweed: 60
[7]; Preemergence, 31 g ai/ha
  Plant response rating, Chickweed: 60
[7]; Preemergence, 62 g ai/ha
  Plant response rating, Chickweed: 75
[7]; Preemergence, 125 g ai/ha
  Plant response rating, Chickweed: 90

## Nc1nc(C2CC2)nc(C=O)c1Br [Compound 26]
[1]; Postemergence, 125 g ai/ha
  Plant response rating, Mustard, Wild: 60
[1]; Postemergence, 250 g ai/ha
  Plant response rating, Mustard, Wild: 75
[1]; Preemergence, 125 g ai/ha
  Plant response rating, Mustard, Wild: 65
[1]; Preemergence, 250 g ai/ha
  Plant response rating, Mustard, Wild: 65
[2]; Postemergence, 125 g ai/ha
  Plant response rating, Russian Thistle: 40
[2]; Postemergence, 250 g ai/ha
  Plant response rating, Russian Thistle: 40
[2]; Preemergence, 250 g ai/ha
  Plant response rating, Russian Thistle: 100
[3]; Postemergence, 125 g ai/ha
  Plant response rating, Wheat: 45
[3]; Postemergence, 250 g ai/ha
  Plant response rating, Wheat: 20
[3]; Preemergence, 125 g ai/ha
  Plant response rating, Wheat: 25
[3]; Preemergence, 250 g ai/ha
  Plant response rating, Wheat: 35
[4]; Postemergence, 125 g ai/ha
  Plant response rating, Buckwheat, Wild: 35
[4]; Postemergence, 250 g ai/ha
  Plant response rating, Buckwheat, Wild: 55
[4]; Preemergence, 125 g ai/ha
  Plant response rating, Buckwheat, Wild: 65
[4]; Preemergence, 250 g ai/ha
  Plant response rating, Buckwheat, Wild: 95
[5]; Postemergence, 125 g ai/ha
  Plant response rating, Lambsquarters: 40
[5]; Postemergence, 250 g ai/ha
  Plant response rating, Lambsquarters: 50
[5]; Preemergence, 125 g ai/ha
  Plant response rating, Lambsquarters: 60
[5]; Preemergence, 250 g ai/ha
  Plant response rating, Lambsquarters: 65
[6]; Postemergence, 125 g ai/ha
  Plant response rating, Kochia: 35
[6]; Postemergence, 250 g ai/ha
  Plant response rating, Kochia: 55
[6]; Preemergence, 125 g ai/ha
  Plant response rating, Kochia: 55
[6]; Preemergence, 250 g ai/ha
  Plant response rating, Kochia: 75
[7]; Postemergence, 125 g ai/ha
  Plant response rating, Chickweed: 45
[7]; Postemergence, 250 g ai/ha
  Plant response rating, Chickweed: 55
[7]; Preemergence, 125 g ai/ha
  Plant response rating, Chickweed: 60
[7]; Preemergence, 250 g ai/ha
  Plant response rating, Chickweed: 65
